Assay results published in patent US12209081B2 (Katholieke Universiteit Leuven, priority 2020, dated 2025).

target: mouse TRPM3α2 (mTRPM3) ion channel (Mus musculus (Mouse), UniProt J9SQF3); assay: TRPM3 ion channel driven Ca2+ uptake, Fluo-4 AM assay, mTRPM3alpha2 overexpressing flip-in HEK293 cells stimulated with pregnenolone sulfate; format: cell-based; conditions: PS 50 μM, cpds 200-299
In short: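 Read-out is Ca2+ influx via Fluo-4 AM fluorescence at 485/535 nm, taken right after seeding ~2000 cells/well onto compound with 50 μM PS. Inhibition computed from RFU between vehicle-stimulated and positive-control-inhibitor wells; cells were mTRPM3α2-overexpressing flip-in HEK293.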

Sequence of mouse TRPM3α2 (mTRPM3) ion channel (J9SQF3 other isoform, or with tags, fused parts or gaps): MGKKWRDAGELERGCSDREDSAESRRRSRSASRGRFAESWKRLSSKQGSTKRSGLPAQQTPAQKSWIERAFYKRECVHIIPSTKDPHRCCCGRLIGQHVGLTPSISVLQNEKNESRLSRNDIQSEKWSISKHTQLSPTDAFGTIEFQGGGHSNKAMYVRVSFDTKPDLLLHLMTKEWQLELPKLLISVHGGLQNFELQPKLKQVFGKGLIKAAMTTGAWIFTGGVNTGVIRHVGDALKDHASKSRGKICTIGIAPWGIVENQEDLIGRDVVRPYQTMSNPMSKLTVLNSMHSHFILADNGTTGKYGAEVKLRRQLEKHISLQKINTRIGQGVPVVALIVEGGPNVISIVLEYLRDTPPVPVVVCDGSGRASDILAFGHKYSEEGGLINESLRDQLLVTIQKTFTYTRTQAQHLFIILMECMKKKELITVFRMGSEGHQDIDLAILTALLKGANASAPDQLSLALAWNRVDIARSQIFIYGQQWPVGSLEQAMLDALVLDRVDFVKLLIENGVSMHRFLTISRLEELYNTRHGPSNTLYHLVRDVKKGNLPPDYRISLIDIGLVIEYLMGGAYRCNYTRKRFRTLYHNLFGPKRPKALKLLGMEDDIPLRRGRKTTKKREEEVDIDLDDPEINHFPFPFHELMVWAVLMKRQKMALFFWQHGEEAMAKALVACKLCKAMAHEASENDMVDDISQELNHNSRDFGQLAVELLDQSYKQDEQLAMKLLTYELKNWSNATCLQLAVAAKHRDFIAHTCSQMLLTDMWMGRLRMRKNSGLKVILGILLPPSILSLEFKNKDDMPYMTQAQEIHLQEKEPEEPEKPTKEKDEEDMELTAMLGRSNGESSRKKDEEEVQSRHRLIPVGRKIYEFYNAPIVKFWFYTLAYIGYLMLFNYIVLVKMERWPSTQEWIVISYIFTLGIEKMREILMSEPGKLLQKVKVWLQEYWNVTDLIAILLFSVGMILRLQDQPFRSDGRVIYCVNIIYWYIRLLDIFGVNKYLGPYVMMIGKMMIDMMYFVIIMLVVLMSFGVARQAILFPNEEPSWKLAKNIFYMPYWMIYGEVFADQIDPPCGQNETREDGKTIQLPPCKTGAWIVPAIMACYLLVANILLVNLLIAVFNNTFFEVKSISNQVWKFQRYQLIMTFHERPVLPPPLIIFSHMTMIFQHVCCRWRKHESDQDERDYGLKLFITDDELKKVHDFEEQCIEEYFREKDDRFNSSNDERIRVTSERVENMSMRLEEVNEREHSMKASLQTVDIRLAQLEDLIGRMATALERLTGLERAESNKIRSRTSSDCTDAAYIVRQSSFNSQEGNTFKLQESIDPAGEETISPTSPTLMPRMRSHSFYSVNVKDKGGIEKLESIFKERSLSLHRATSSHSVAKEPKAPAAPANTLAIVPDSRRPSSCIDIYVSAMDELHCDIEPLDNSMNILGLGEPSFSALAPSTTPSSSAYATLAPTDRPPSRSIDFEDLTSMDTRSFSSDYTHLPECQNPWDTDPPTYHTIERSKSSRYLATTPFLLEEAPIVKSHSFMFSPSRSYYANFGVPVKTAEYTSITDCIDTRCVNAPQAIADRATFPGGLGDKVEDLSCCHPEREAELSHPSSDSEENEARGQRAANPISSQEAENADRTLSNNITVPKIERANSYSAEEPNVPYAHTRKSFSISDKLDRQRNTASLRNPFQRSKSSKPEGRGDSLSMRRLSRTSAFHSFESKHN

SMILES	IC50 [µM]
Cc1oc2ccc(OCc3cccnc3C(F)(F)F)cc2c1C(=O)NC1(CO)CC1 [compound 200, N-(1-(hydroxymethyl)cyclopropyl)-2-methyl-5-((2-(trifluoromethyl)pyridin-3-yl)methoxy) -benzofuran-3-carboxamide]	< 1
Cc1oc2ccc(OCc3nccn3C)cc2c1C(=O)NC1(CO)CCOCC1 [compound 204, N-(4-(hydroxymethyl)tetrahydro-2H-pyran-4-yl)-2-methyl-5-((1-methyl-1H-imidazol-2-yl) -methoxy)benzofuran-3-carboxamide]	< 1
CCOc1ncccc1COc1ccc2oc(C)c(C(=O)NC3(CO)CCOCC3)c2c1 [compound 206, 5-((2-ethoxypyridin-3-yl)methoxy)-N-(4-(hydroxymethyl)tetrahydro-2H-pyran-4-yl)-2-methyl-benzofuran-3-carboxamide]	< 1
Cc1ncsc1COc1ccc2oc(C)c(C(N)=O)c2c1 [compound 232, 2-methyl-5-((4-methylthiazol-5-yl)methoxy)benzofuran-3-carboxamide]	< 1
Cc1ncsc1COc1ccc2oc(C)c(C(=O)N[C@H](C)C(N)=O)c2c1 [compound 271, (R)-N-(1-amino-1-oxopropan-2-yl)-2-methyl-5-((4-methylthiazol-5-yl)methoxy)benzofuran-3-carboxamide]	< 1
Cc1ncsc1COc1ccc2oc(C)c(C(=O)N[C@@H](CS(C)(=O)=O)C(N)=O)c2c1 [compound 272, (R)-N-(1-amino-3-(methylsulfonyl)-1-oxopropan-2-yl)-2-methyl-5-((4-methylthiazol-5-yl)methoxy)benzofuran-3-carboxamide]	< 1
Cc1ncsc1COc1ccc2oc(C)c(C(=O)N[C@@H](C(N)=O)C(C)C)c2c1 [compound 273, (R)-N-(1-amino-3-methyl-1-oxobutan-2-yl)-2-methyl-5-((4-methylthiazol-5-yl)methoxy)benzofuran-3-carboxamide]	< 1
Cc1ncc(COc2ccc3oc(C)c(C(=O)N[C@H](CO)CS(C)(=O)=O)c3c2)s1 [compound 274, (R)-N-(1-hydroxy-3-(methylsulfonyl)propan-2-yl)-2-methyl-5-((2-methylthiazol-5-yl)methoxy)benzofuran-3-carboxamide]	< 1
Cc1ncsc1COc1ccc2oc(C)c(C(=O)N[C@H](CO)CS(C)(=O)=O)c2c1 [compound 275]	< 1
CNC(=O)[C@@H](CO)NC(=O)c1c(C)oc2ccc(OCc3scnc3C)cc12 [compound 276, (R)-N-(3-hydroxy-1-(methylamino)-1-oxopropan-2-yl)-2-methyl-5-((4-methylthiazol-5-yl)methoxy)benzofuran-3-carboxamide]	< 1
Cc1ncc(COc2ccc3oc(C)c(C(=O)N[C@@H](CO)C(=O)N(C)C)c3c2)s1 [compound 278, (S)-N-(1-(dimethylamino)-3-hydroxy-1-oxopropan-2-yl)-2-methyl-5-((2-methylthiazol-5-yl)methoxy)benzofuran-3-carboxamide]	< 1
Cc1ncsc1COc1ccc2oc(C)c(C(=O)N[C@@H](C)C(N)=O)c2c1 [compound 279, (S)-N-(1-amino-1-oxopropan-2-yl)-2-methyl-5-((4-methylthiazol-5-yl)methoxy)benzofuran-3-carboxamide]	< 1
Cc1oc2ccc(OCc3cccnc3C(F)(F)F)cc2c1C(=O)N[C@@H](CO)C(N)=O [compound 280, (S)-N-(1-amino-3-hydroxy-1-oxopropan-2-yl)-2-methyl-5-((2-(trifluoromethyl)pyridin-3-yl)methoxy)benzofuran-3-carboxamide]	< 1
Cc1oc2ccc(OCc3cnc(C(F)(F)F)s3)cc2c1C(=O)N[C@@H](CO)C(N)=O [compound 281, (S)-N-(1-amino-3-hydroxy-1-oxopropan-2-yl)-2-methyl-5-((2-(trifluoromethyl)thiazol-5-yl)methoxy)benzofuran-3-carboxamide]	< 1
Cc1nc(C(F)(F)F)c(COc2ccc3oc(C)c(C(=O)N[C@@H](CO)C(N)=O)c3c2)s1 [compound 282, (S)-N-(1-amino-3-hydroxy-1-oxopropan-2-yl)-2-methyl-5-((2-methyl-4-(trifluoromethyl)thiazol-5-yl)methoxy)benzofuran-3-carboxamide]	< 1
Cc1ncc(COc2ccc3oc(C)c(C(=O)N[C@@H](CO)C(N)=O)c3c2)o1 [compound 283, (S)-N-(1-amino-3-hydroxy-1-oxopropan-2-yl)-2-methyl-5-((2-methyloxazol-5-yl)methoxy)benzofuran-3-carboxamide]	< 1
Cc1ncccc1COc1ccc2oc(C)c(C(=O)N[C@@H](CO)C(N)=O)c2c1 [compound 284, (S)-N-(1-amino-3-hydroxy-1-oxopropan-2-yl)-2-methyl-5-((2-methylpyridin-3-yl)methoxy)benzofuran-3-carboxamide]	< 1
Cc1nc(COc2ccc3oc(C)c(C(=O)N[C@@H](CO)C(N)=O)c3c2)cs1 [compound 285, (S)-N-(1-amino-3-hydroxy-1-oxopropan-2-yl)-2-methyl-5-((2-methylthiazol-4-yl)methoxy)benzofuran-3-carboxamide]	< 1
Cc1oc2ccc(OCc3c[nH]nc3C(F)(F)F)cc2c1C(=O)N[C@@H](CO)C(N)=O [compound 286, (S)-N-(1-amino-3-hydroxy-1-oxopropan-2-yl)-2-methyl-5-((3-(trifluoromethyl)-1H-pyrazol-4-yl)methoxy)benzofuran-3-carboxamide]	< 1
Cc1ccncc1COc1ccc2oc(C)c(C(=O)N[C@@H](CO)C(N)=O)c2c1 [compound 287]	< 1
Cc1ncsc1COc1ccc2oc(C)c(C(=O)N[C@@H](CO)C(N)=O)c2c1 [compound 288, (S)-N-(1-amino-3-hydroxy-1-oxopropan-2-yl)-2-methyl-5-((4-methylthiazol-5-yl)methoxy)benzofuran-3-carboxamide]	< 1

same assay, conditions: PS (50 μM) stimulated, cpd 001-199

SMILES	IC50 [µM]
Cc1ncsc1COc1ccc2oc(C)c(C(=O)Nc3ccn(C)n3)c2c1 [compound 161, 2-methyl-N-(1-methyl-1H-pyrazol-3-yl)-5-((4-methylthiazol-5-yl)methoxy)benzofuran-3-carboxamide]	< 1
Cc1ncsc1COc1ccc2oc(C)c(C(=O)NC3CCN(CC(F)(F)F)CC3)c2c1 [compound 166, 2-methyl-5-((4-methylthiazol-5-yl)methoxy)-N-(1-(2,2,2-trifluoroethyl)piperidin-4-yl)benzofuran-3-carboxamide]	< 1
Cc1oc2ccc(OCc3cccnc3C(F)(F)F)cc2c1C(=O)NC1CC2(COC2)C1 [compound 167, 2-methyl-N-(2-oxaspiro[3.3]heptan-6-yl)-5-((2-(trifluoromethyl)pyridin-3-yl)methoxy)benzofuran-3-carboxamide]	< 1
Cc1oc2ccc(OCc3cccnc3C(F)(F)F)cc2c1C(=O)NC1CCN(CC(F)(F)F)CC1 [compound 168, 2-methyl-N-(1-(2,2,2-trifluoroethyl)piperidin-4-yl)-5-((2-(trifluoromethyl)pyridin-3-yl)methoxy) -benzofuran-3-carboxamide]	< 1
Cc1oc2ccc(OCc3cccnc3C(F)(F)F)cc2c1C(=O)OCC1(N)CCOC1 (centres unmarked) [compound 170, (3-aminotetrahydrofuran-3-yl)methyl 2-methyl-5-((2-(trifluoromethyl)pyridin-3-yl)methoxy) -benzofuran-3-carboxylate]	< 1
Cc1ncsc1COc1ccc2oc(C)c(C(=O)Nc3ccnn3C)c2c1 [compound 171, 2-methyl-N-(1-methyl-1H-pyrazol-5-yl)-5-((4-methylthiazol-5-yl)methoxy)benzofuran-3-carboxamide]	< 1
Cc1oc2ccc(OCc3cccnc3C(F)(F)F)cc2c1C(=O)NC1CC2(CNC2)C1 [compound 173, 2-methyl-N-(2-azaspiro[3,3]heptan-6-yl)-5-((2-(trifluoromethyl)pyridin-3-yl)methoxy)benzofuran-3-carboxamide]	< 1
Cc1ncsc1COc1cc2c(C(=O)NC3(CO)CCOCC3)c(C)oc2cc1Cl [compound 174, 6-chloro-N-(4-(hydroxymethyl)tetrahydro-2H-pyran-4-yl)-2-methyl-5-((4-methylthiazol-5-yl) -methoxy)benzofuran-3-carboxamide]	< 1
Cc1oc2ccc(OCc3cccnc3C(F)(F)F)cc2c1C(=O)N[C@@H]1CN(C(=O)OCC(F)(F)F)CC1(F)F [compound 175, 2,2,2-trifluoroethyl (R)-3,3-difluoro-4-(2-methyl-5-((2-(trifluoromethyl)pyridin-3-yl)methoxy) -benzofuran-3-carboxamido)pyrrolidine-1-carboxylate]	< 1
Cc1ncsc1COc1ccc2oc(C)c(C(=O)NC3(CO)CCOCC3)c2c1F [compound 177, 4-fluoro-N-(4-(hydroxymethyl)tetrahydro-2H-pyran-4-yl)-2-methyl-5-((4-methylthiazol-5-yl) -methoxy)benzofuran-3-carboxamide]	< 1
Cc1ncsc1COc1cc2c(C(=O)NC3(CO)CCOCC3)c(C)oc2cc1F [compound 182, 6-fluoro-N-(4-(hydroxymethyl)tetrahydro-2H-pyran-4-yl)-2-methyl-5-((4-methylthiazol-5-yl)methoxy)benzofuran-3-carboxamide]	< 1
Cc1ncsc1COc1ccc2oc(C)c(C(=O)n3ccc(N)n3)c2c1 [compound 192, (3-amino-1H-pyrazol-1-yl) (2-methyl-5-((4-methylthiazol-5-yl)methoxy)benzofuran-3-yl) -methanone]	> 20
Cc1ncsc1COc1ccc2oc(C)c(C(=O)NC3(CO)CCOCC3)c2c1C#N [compound 193]	> 20
Cc1ncsc1COc1cc2c(C(=O)NC3(CO)CCOCC3)c(C)oc2cc1C#N [compound 194, 6-cyano-N-(4-(hydroxymethyl)tetrahydro-2H-pyran-4-yl)-2-methyl-5-((4-methylthiazol-5-yl) -methoxy)benzofuran-3-carboxamide]	> 20
